{
  "source": "patent US20100278687A1",
  "about": "“R[…] GYPSUM BOARD USING GASEOUS CHLORINE DIOXIDE” (SABRE INTELLECTUAL PROPERTY HOLDINGS COMPANY, LLC., priority 2009, published 2010)",
  "key": {"[1]": {"conditions": "after fumigation, visual", "experimental": "The corrosivity potential of ClO2 on metals and bleaching potential of ClO2 on household carpeting were evaluated through pre- and post treatment visual observations made throughout the structure.\nCorrosivity potential was assessed by observation of typical metal items present within the structure (e.g. screws, door hinges, HVAC system components, etc.). […] Each piece of copper was “scuffed” clean prior to fumigation to ensure that any changes in the metal due to ClO2 exposure would be readily recognizable. Photographs were taken of the copper pipe pieces before and after treatment to document visual observations made."}, "SRBs and sulfur bacteria": {"test_system": "SRBs and sulfur bacteria", "assay": "Chlorine dioxide fumigation of Chinese wallboard, SRB kill", "assay_type": "cell-based", "conditions": "65% RH and 65° F., enclosed structure", "method": "Two square ([…]) samples of ⅝ inch Chinese wall board are collected from the structure that reported odor issues from different areas of the structure. […] The samples are split into four 25 cm×25 cm squares with the exposed ends of the sheetrock taped and painted with the same paint used within the structure. Two squares from each sample are placed into a chlorine dioxide fumigation chamber and fumigated with chlorine dioxide to a CT value of 9000 ppmv hours at 65% RH and 65° F. The other two squares from each sample are held in sealed bags as test blanks.\nUpon completion of the test, each of the samples can be sampled as follows: Each core sample is homogenized in 10 ml of an anaerobic SRB broth, and 1 ml of the broth is transferred to 10 ml of broth in an anaerobic container and diluted serially out to a 104th dilution. The broth bottles are incubated at 25° C. for 21 days. Each day growth is recorded, and a lab blank negative control is performed on the initial broth."}, "[2]": {"test_system": "Bacillus atrophaeus spores", "assay": "BI spore strip viability test, strips inside wall cavities during ClO2 fumigation", "assay_type": "cell-based", "conditions": "Bacillus atrophaeus spore strips in wall cavities; incubated seven days; both positive controls grew", "text": "BI Spore Strips—BI spore strips, each containing an approximate 2.5×103 titer of B. atrophaeus spores, were placed within wall cavities of the structure at the same 20 locations where wallboard samples had been collected, prior to insertion of the 2-inch expansion plugs. The B. atrophaeus species was selected due to its historical use as a biological indicator for ClO2 fumigations\nSpore strips are thin cellulose pads that have been impregnated with a defined titer of bacterial spores. Each spore strip is encased in a Tyvek® pouch to allow for effective penetration of fumigant gas yet protect the strip from contamination by external sources. The BIs were obtained from SGM Biotech Inc., 10 Evergreen Drive, Suite E, Bozeman, Mont. (Lot #ACD-113e). All BIs were supplied from the same product batch in order to ensure uniformity in spore titer. Relevant production QA/QC data for the specific lot number have been kept on file for future reference.\nAll BIs were retrieved promptly following fumigation and sent to Sabre's Slingerlands, N.Y. laboratory facility for analysis. Each spore strip was aseptically placed in a growth media tube containing 15 milliliters of trypticase soy broth (BD Diagnostics product #221823, Lot # 7337460) and incubated at 37 degrees Centigrade. Spore strips were evaluated daily for the presence or absence of indicator organism growth for a total of seven days. […]"}, "[3]": {"test_system": "sulfate-reducing bacteria (SRBs)", "assay": "SRB growth test (presence/absence) on unpainted wallboard paper before and after ClO2 fumigation of a house", "assay_type": "cell-based", "conditions": "20 wall and ceiling cavity locations, 12 of 20 positive before treatment; 13 hours, CT 5336-9727 ppmv-hours, about 45-52% RH", "method": "SRBs—The efficacy of ClO2 gas in eliminating SRBs from Chinese wallboard material was evaluated by collecting samples of unpainted wallboard paper located inside wall cavities of the home prior to, and immediately after, ClO2 exposure. Unpainted wallboard paper from wall cavities was chosen for SRB testing because preliminary laboratory work done at Sabre's Slingerlands, N.Y. laboratory facility had shown SRBs to be concentrated in this media.\nPre-treatment wallboard paper samples were collected by drilling a two-inch circular core at selected wall and ceiling locations. To avoid damaging vapor barriers present within the home, samples were not collected from any bathroom or laundry room locations. Sample locations were selected to be representative wall cavities within the structure most likely to contain conditions conducive to SRB growth. In total, 20 sample locations were selected. Nine were wall cores and eleven were ceiling cores.\nThe wallboard holes created through SRB sampling were each sealed using a two-inch rubber expansion plug in order to ensure that ClO2 gas would not penetrate into wall cavities as a consequence of sampling activities.\nPost-treatment wallboard paper samples were collected by drilling an identical two-inch circular core approximately one inch away from each of the 20 pre-treatment sample locations. […]"}, "[4]": {"assay": "Olfactory observation of reduced-sulfur odors before and after treatment", "conditions": "Sabre personnel and independent observers; faint swimming pool like scent remained", "text": "Subjective Odor Elimination—Reduced-sulfur compounds odors are extremely noxious and can be detected by the human olfactory (i.e. odor) sense at levels which are at or below the detection limits of sophisticated analytical instruments. As such, the olfactory senses of both Sabre personnel and independent observers were employed both pre- and post-treatment to gauge the effectiveness of ClO2 in ridding the test structure of reduced-sulfur compound odors.\nOdor levels emanating from within the structure were observed both pre- and post-treatment for the “putrid” characteristic commonly associated with reduced-sulfur gases such as hydrogen sulfide, carbonyl sulfide and carbon disulfide that have been definitively shown by an FDOH study as being released from Chinese wallboard."}, "[5]": {"conditions": "after fumigation, side-by-side with untreated carpet", "experimental": "Bleaching potential of ClO2 was assessed by observation of carpet color and brightness throughout the structure both pre- and post-treatment. A piece of carpeting was also removed from a closet within the structure prior to fumigation and used for direct visual comparison with treated carpet following completion of the process."}},
  "data": [
    {"smiles": "[O][Cl+][O-]", "note": "[ClO2, chlorine dioxide]", "values": [
      {"measurement": "Corrosive effect on common metal items in the structure", "setting": "[1]", "value": "no corrosive effect was visible"},
      {"measurement": "Changes in scuffed copper pipe pieces", "setting": "[1]; some pieces had a gold-like tint", "value": "no changes were observed"},
      {"measurement": "CT of fumigation that eliminates growth of SRBs and sulfur bacteria and oxidizes reactive sulfides", "setting": "SRBs and sulfur bacteria", "value": "about 9000 ppmv hours"},
      {"measurement": "Surrogate test organism growth on BI spore strips after ClO2 treatment", "setting": "[2]", "value": "negative for surrogate test organism growth"},
      {"measurement": "SRB growth after ClO2 treatment", "setting": "[3]", "value": "negative for SRB growth"},
      {"measurement": "Reduced-sulfur gas odors after fumigation", "setting": "[4]", "value": "completely eliminated"},
      {"measurement": "Bleaching effect on carpet color and brightness", "setting": "[5]", "value": "no meaningful bleaching effect"}
    ]}
  ]
}
